The source of these data is ChEMBL document CHEMBL1201862, “PubChem BioAssay data set” (2004).

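Method: 48-hour compound exposure of cells in 96-well plates, five concentrations, linear interpolation of endpoints. GI50 = concentration required for 50% inhibition of growth.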 Active and inactive are the calls of the source. Cut-off read from the data, not from the text of the source: active = GI50 up to about 1.1 µM and inactive = higher.

Test systems include MDA-MB-435; OVCAR-4; NCI-H460; SF-268; HCT-15; HCC 2998; MOLT-4; T47D; LOX IMVI; Hs-578T; SK-MEL-2; SF-295; 786-0; NCI-H522; BT-549; SK-MEL-28; TK-10; HT-29; M14; OVCAR-8.
Common to all, as to test: growth of human tumour cells (NCI), 48 h

Take `CC1=NN(C(=O)c2ccncc2)C(=O)C1/N=N/c1ccc2ccccc2c1` (stereo not given): the GI50 with MDA-MB-435 was 3.4 µM (inactive); in the assay on OVCAR-4, > 100 µM (inactive); with NCI-H460 it was 21.5 µM (inactive); in the assay on SF-268, 69 µM (inactive); in the assay with HCT-15 it was 7.41 µM; with HCC 2998 it was 3.03 µM (inactive). Also, the GI50 with MOLT-4 is 5.32 µM (inactive); with T47D, > 100 µM (inactive); with LOX IMVI it was 30.1 µM (inactive); in the assay on Hs-578T, 5.2 µM (inactive); in the assay on SK-MEL-2, 14.7 µM (inactive); in the assay on SF-295 it was 91 µM (inactive). Further, the GI50 was > 100 µM (inactive) in the assay with 786-0; > 100 µM (inactive) in the assay on NCI-H522; > 100 µM (inactive) in the assay on BT-549; > 100 µM (inactive) in the assay on SK-MEL-28; 60.3 µM (inactive) with TK-10; 11.7 µM (inactive) in the assay on HT-29. In addition, the values for the GI50 with M14 and with OVCAR-8 were 12.2 µM (inactive) and > 100 µM (inactive), respectively.

Turning to `COC(=O)c1ccc(NC(=O)O/N=C(\Cl)C(C)C)cc1`, the GI50 is 11.3 µM (inactive) in the assay on MDA-MB-435; 18.1 µM (inactive) in the assay on OVCAR-4; 20.9 µM (inactive) in the assay on NCI-H460; 26.2 µM (inactive) in the assay on SF-268; 1.83 µM with HCT-15; 14.7 µM (inactive) in the assay with HCC 2998. In addition, the GI50 is 1.79 µM (inactive) in the assay with MOLT-4; 2 µM (inactive) in the assay on T47D; 1.74 µM (inactive) in the assay on LOX IMVI; 10.8 µM (inactive) in the assay with Hs-578T; 16.8 µM (inactive) in the assay on SK-MEL-2; 17.7 µM (inactive) in the assay on SF-295. Besides, the GI50 in the assay on 786-0 is 2.03 µM (inactive); in the assay with NCI-H522, 0.32 µM (active); with BT-549, 2.67 µM (inactive); in the assay with SK-MEL-28, 4.84 µM (inactive); in the assay on TK-10 it was 3.05 µM (inactive); in the assay on HT-29, 4.31 µM (inactive). Also, the GI50 in the assay on M14 is 2.99 µM (inactive); in the assay with OVCAR-8, 14 µM (inactive).

`COc1ccc(OC)c(NC(=O)C(=O)Nn2c(S)nc3ccccc3c2=O)c1`: the GI50 is > 100 µM (inactive) in the assay on MDA-MB-435; > 100 µM (inactive) in the assay on OVCAR-4; > 100 µM (inactive) in the assay on NCI-H460; > 100 µM (inactive) in the assay on SF-268; over 100 µM in the assay on HCT-15; > 100 µM (inactive) with HCC 2998. For the same molecule, the GI50 in the assay on MOLT-4, with T47D, in the assay on LOX IMVI, in the assay with Hs-578T, in the assay with SK-MEL-2 and in the assay on SF-295 was > 100 µM (inactive) throughout. Besides, the GI50 in the assay on 786-0, with NCI-H522, in the assay with BT-549, in the assay on SK-MEL-28, in the assay on TK-10 and in the assay with HT-29 was > 100 µM (inactive) throughout. Besides, the GI50 in the assay with M14 and in the assay on OVCAR-8 was > 100 µM (inactive) in each case.

Consider `C[C@H](CCC(=O)NCCS(=O)(=O)O)[C@H]1CC[C@H]2[C@@H]3CC[C@@H]4C[C@H](O)CC[C@]4(C)[C@H]3CC[C@]12C`, for which the GI50 is > 100 µM (inactive) in the assay on MDA-MB-435; > 100 µM (inactive) in the assay with OVCAR-4; > 100 µM (inactive) in the assay with NCI-H460; > 100 µM (inactive) in the assay with SF-268; over 100 µM with HCT-15; > 100 µM (inactive) in the assay with HCC 2998. Moreover, the GI50 in the assay with MOLT-4 is 91 µM (inactive); with T47D, > 100 µM (inactive); with LOX IMVI it was > 100 µM (inactive); in the assay on Hs-578T, > 100 µM (inactive); with SK-MEL-2 it was > 100 µM (inactive); in the assay on SF-295, > 100 µM (inactive). Further, the GI50 in the assay on 786-0, in the assay with NCI-H522, in the assay with BT-549, in the assay on SK-MEL-28, with TK-10 and with HT-29 was > 100 µM (inactive) throughout. In addition, the GI50 in the assay on M14 and in the assay on OVCAR-8 was > 100 µM (inactive) in each case.

`CC(=O)O[C@H]1C[C@]2(O)[C@@H]3CC[C@@H]4C[C@@H](O)CC[C@]4(C)[C@H]3CC[C@]2(C)[C@H]1C1=CC(=O)OC1`: the GI50 in the assay with MDA-MB-435 is 0.179 µM (active); in the assay with OVCAR-4 it was 0.0362 µM (active); in the assay on NCI-H460, 0.0289 µM (active); in the assay with SF-268 it was 0.0429 µM (active); in the assay on HCT-15, 0.0843 µM; in the assay on HCC 2998, 0.161 µM (active). The GI50 with MOLT-4 is 0.0201 µM (active); with T47D, 0.222 µM (active); in the assay on LOX IMVI, 0.0585 µM (active); in the assay with Hs-578T, 0.0675 µM (active); in the assay with SK-MEL-2, 0.218 µM (active); with SF-295 it was 0.0391 µM (active). In addition, the GI50 was 0.0455 µM (active) in the assay on 786-0; 0.0251 µM (active) with NCI-H522; 0.0284 µM (active) with BT-549; 0.324 µM (active) in the assay on SK-MEL-28; 0.0796 µM (active) in the assay with TK-10; 0.0986 µM (active) with HT-29. For the same molecule, the values for the GI50 with M14 and in the assay with OVCAR-8 were 0.172 µM (active) and 0.0923 µM (active), respectively.

In the case of `CC(O)(C(=O)N(O)c1ccc(Cl)cc1)c1ccc(Cl)cc1` (stereo not given), the GI50 in the assay with MDA-MB-435 is 24.7 µM (inactive); with OVCAR-4 it was 37.9 µM (inactive); in the assay with NCI-H460, 34.2 µM (inactive); in the assay on SF-268, 23.7 µM (inactive); in the assay with HCT-15, 19.2 µM; with HCC 2998, 13 µM (inactive). Further, the GI50 in the assay on MOLT-4 is 12.5 µM (inactive); in the assay on T47D, 31.6 µM (inactive); with LOX IMVI it was 24.4 µM (inactive); with Hs-578T, 16.9 µM (inactive); in the assay on SK-MEL-2, 22.2 µM (inactive); with SF-295 it was 27.3 µM (inactive). Besides, the GI50 is 28.8 µM (inactive) in the assay with 786-0; 18.6 µM (inactive) in the assay with NCI-H522; 21.6 µM (inactive) with BT-549; 33.3 µM (inactive) with SK-MEL-28; 29.7 µM (inactive) with TK-10; 31 µM (inactive) in the assay on HT-29. For the same molecule, the GI50 in the assay on M14 was 34 µM (inactive); in the assay with OVCAR-8 it was 27.2 µM (inactive).

For `O=C(NC(Cc1c[nH]c2ccccc12)C(=O)O)/C(=C/c1ccccc1)NC(=O)c1ccccc1` (stereo not given), the GI50 with MDA-MB-435 is 78.9 µM (inactive); in the assay with OVCAR-4, 71.1 µM (inactive); in the assay with NCI-H460, 68.1 µM (inactive); in the assay on SF-268, > 100 µM (inactive); in the assay on HCT-15, over 55.1 µM; in the assay with HCC 2998 it was 78.3 µM (inactive). Further, the GI50 in the assay on MOLT-4 was 51.1 µM (inactive); with T47D, 36.2 µM (inactive); in the assay on LOX IMVI, > 100 µM (inactive); with Hs-578T, 28.5 µM (inactive); with SK-MEL-2 it was 57.5 µM (inactive); with SF-295, 36.4 µM (inactive). Moreover, the GI50 in the assay with 786-0 is > 100 µM (inactive); with NCI-H522 it was 25.3 µM (inactive); in the assay on BT-549, 43.8 µM (inactive); in the assay with SK-MEL-28, > 88.9 µM (inactive); with TK-10, > 72.8 µM (inactive); in the assay with HT-29, 66.7 µM (inactive). Also, the GI50 with M14 was 46 µM (inactive); in the assay on OVCAR-8, 57.5 µM (inactive).

As for `CNc1c2cccc(C)c2nc2c(C(=O)NCCN(C)C)cccc12`, the GI50 in the assay with MDA-MB-435 is 0.152 µM (active); in the assay on OVCAR-4, < 0.01 µM (active); with NCI-H460 it was 0.0435 µM (active); with SF-268 it was 0.0445 µM (active); in the assay on HCT-15, 0.115 µM; in the assay with HCC 2998, 0.0322 µM (active). The GI50 in the assay with MOLT-4 was < 0.0208 µM (active); with T47D, 0.162 µM (active); in the assay with LOX IMVI, 0.112 µM (active); in the assay on Hs-578T it was 0.0957 µM (active); in the assay with SK-MEL-2, 0.309 µM (active); in the assay with SF-295 it was 0.0586 µM (active). The GI50 in the assay with 786-0 is 0.104 µM (active); with NCI-H522 it was < 0.01 µM (active); in the assay with BT-549 it was 1.04 µM (active); in the assay on SK-MEL-28, 0.45 µM (active); in the assay on TK-10 it was 0.128 µM (active); in the assay on HT-29, < 0.0197 µM (active). The figures for the GI50 with M14 and with OVCAR-8 were 0.207 µM (active) and 0.07 µM (active), respectively.

`O=C(NC(c1ccccc1)C(O)C(=O)OCc1ccc2c(c1)C(=O)c1ccccc1C2=O)c1ccccc1` (stereo not given): the GI50 was 34.4 µM (inactive) in the assay on MDA-MB-435; 2.2 µM (inactive) in the assay with OVCAR-4; 14.9 µM (inactive) in the assay on NCI-H460; 17.1 µM (inactive) in the assay with SF-268; over 95.3 µM in the assay on HCT-15; 39.6 µM (inactive) in the assay on HCC 2998. Moreover, the GI50 was 74.6 µM (inactive) with MOLT-4; 15.2 µM (inactive) in the assay with T47D; 13.2 µM (inactive) in the assay with LOX IMVI; 34.8 µM (inactive) in the assay on Hs-578T; 18.1 µM (inactive) in the assay on SK-MEL-2; 10.6 µM (inactive) in the assay with SF-295. Further, the GI50 in the assay on 786-0 is 2.94 µM (inactive); with NCI-H522, 14.8 µM (inactive); in the assay with BT-549 it was 35.3 µM (inactive); in the assay on SK-MEL-28 it was 28.1 µM (inactive); in the assay with TK-10, 15.2 µM (inactive); in the assay with HT-29 it was 61.4 µM (inactive). Further, the figures for the GI50 in the assay with M14 and with OVCAR-8 were 36.1 µM (inactive) and 4.25 µM (inactive), respectively.

With `Cc1c(C)c(S(=O)(=O)N(CCCCCCN)OCCCN)c(C)c2c1OC(C)(C)CC2`, the GI50 with MDA-MB-435 is 5.37 µM (inactive); in the assay on OVCAR-4, 2.49 µM (inactive); in the assay with NCI-H460, 2.69 µM (inactive); in the assay with SF-268, 6.93 µM (inactive); in the assay with HCT-15, 15.1 µM; with HCC 2998, 2.04 µM (inactive). The GI50 in the assay on MOLT-4 was 2.18 µM (inactive); in the assay on T47D, 12.1 µM (inactive); with LOX IMVI, 2.4 µM (inactive); in the assay with Hs-578T it was 3.72 µM (inactive); in the assay on SK-MEL-2, 2.42 µM (inactive); in the assay with SF-295, 7.5 µM (inactive). The GI50 in the assay on 786-0 is 3.22 µM (inactive); with NCI-H522 it was 4.7 µM (inactive); in the assay with BT-549 it was 13.3 µM (inactive); in the assay on SK-MEL-28 it was 17.6 µM (inactive); with TK-10 it was 14.3 µM (inactive); in the assay with HT-29, 5.6 µM (inactive). In addition, the GI50 with M14 is 17.8 µM (inactive); with OVCAR-8, 8.17 µM (inactive).
